Values quoted from earlier work, collected in patent EP4803073A2, “METHODS AND COMPOSITIONS FOR TREATMENT OF DISORDERS AMELIORATED BY MUSCARINIC RECEPTOR ACTIVATION” (Puretech Health LLC, priority 2009, dated 2011).

Columns and labels:
[1] = clozapine-associated sialorrhea
[2] = double-blind placebo controlled trial
[3] = phase I and subsequent trials
[4] = given with the muscarinic agonist xanomeline; syncope is a side effect observed with xanomeline
[5] = with the anticholinergic agent glycopyrrolate; escalating amounts of RS-86

## Clc1cccc(Cl)c1N=C1NCCN1 [clonidine]
[1]
  efficacy in reducing sialorrhea: shown efficacy in reducing sialorrhea in small scale trials

## CCCCCCOc1nsnc1C1=CCCN(C)C1 [xanomeline]
[2]
  alleviation of schizophrenia: alleviation of schizophrenia was observed
[3]
  side effects: unacceptable GI side effects

## C[N+]1(C)[C@@H]2C[C@@H](OC(=O)[C@H](CO)c3ccccc3)C[C@H]1[C@@H]1O[C@@H]12 [methscopolamine]
[4]
  effect on syncope: no effect on syncope

## CCN1C(=O)CC2(CCN(C)CC2)C1=O [RS-86]
[5]
  improvement in cognition: did not result in any improvement in cognition
